Tests used:
[1] = target: T1, ~100 representative kinases (Homo sapiens, UniProt Q9BRS2); assay: DSF 100 kinase selectivity screen; assay type: binding; settings: Protein RIOK1; DSF; average of three replicates;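 further: compound tested at 20 µM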
T1 construct: Recombinant protein kinase domains with a concentration of 2 μM
T1 sequence (Q9BRS2 1-568): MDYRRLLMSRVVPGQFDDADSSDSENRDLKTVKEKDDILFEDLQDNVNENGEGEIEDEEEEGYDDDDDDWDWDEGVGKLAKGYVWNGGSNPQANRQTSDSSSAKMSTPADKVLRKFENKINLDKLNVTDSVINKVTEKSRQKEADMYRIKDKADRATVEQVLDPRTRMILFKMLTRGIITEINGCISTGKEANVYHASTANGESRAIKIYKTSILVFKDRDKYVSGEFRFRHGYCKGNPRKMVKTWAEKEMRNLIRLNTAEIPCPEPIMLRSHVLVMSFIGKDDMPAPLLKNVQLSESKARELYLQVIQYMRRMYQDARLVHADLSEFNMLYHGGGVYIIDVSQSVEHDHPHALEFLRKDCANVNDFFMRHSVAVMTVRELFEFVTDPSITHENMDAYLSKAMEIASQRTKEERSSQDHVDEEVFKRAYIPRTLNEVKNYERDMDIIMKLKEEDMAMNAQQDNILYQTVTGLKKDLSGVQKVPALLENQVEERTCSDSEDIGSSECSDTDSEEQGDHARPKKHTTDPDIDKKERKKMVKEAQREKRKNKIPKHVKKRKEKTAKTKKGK
Outline: (§1)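 Each kinase domain, at 2 μM, is mixed with 20 μM test compound and SYPRO Orange in Hepes (20 mM, pH 7.5) with 500 mM NaCl. Temperature is then raised at 3°C/min and fluorescence-monitored unfolding yields the melting temperature change, ΔTm in degrees Celsius.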

[2] = target: T2, ~100 representative kinases (Homo sapiens, UniProt Q96KB5); assay: DSF 100 kinase selectivity screen; assay type: binding; settings: Protein TOPK; DSF; average of three replicates;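 further: compound tested at 20 µM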
T2 construct: Recombinant protein kinase domains with a concentration of 2 μM
T2 sequence (Q96KB5 1-322): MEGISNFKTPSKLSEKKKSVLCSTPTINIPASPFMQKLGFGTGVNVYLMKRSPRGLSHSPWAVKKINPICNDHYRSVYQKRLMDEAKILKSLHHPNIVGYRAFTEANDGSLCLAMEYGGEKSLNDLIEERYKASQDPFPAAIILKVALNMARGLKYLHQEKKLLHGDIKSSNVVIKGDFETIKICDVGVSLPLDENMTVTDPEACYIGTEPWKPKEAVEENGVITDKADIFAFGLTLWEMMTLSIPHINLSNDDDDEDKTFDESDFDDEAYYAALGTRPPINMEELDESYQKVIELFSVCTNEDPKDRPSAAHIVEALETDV
Outline: as §1

| Compound | dTm [1] [K] | dTm [2] [K] |
| --- | --- | --- |
| CCNc1nc(Nc2cc(F)c(C(=O)N3CCOCC3)cc2OC)ncc1C(F)(F)F [GNE-7915] | -0.09 | 0.03 |
| Cc1ccc(C(=O)Nc2ccc(CN3CCN(C)CC3)c(C(F)(F)F)c2)cc1C#Cc1cnc2[nH]ncc2c1 [GZD-824, reference compound] | 2.49 | 4.33 |
| Cc1ccc(C(=O)Nc2ccc(CN3CCN(C)CC3)c(C(F)(F)F)c2)cc1C#Cc1cnc2cccnn12 [Ponatinib, reference compound] | 1.86 | 2.32 |
| Cn1cc(-c2c[nH]c3ncnc(N4CCOCC4)c23)cc1C#N [PFE-360] | -0.58 | 0.66 |
| Cc1ccc(C(=O)Nc2ccc(CN3CCN(C)CC3)c(C(F)(F)F)c2)cc1C#Cc1c[nH]c2ncnc(N3CCOCC3)c12 [Compound 1] | 4.09 | 2.13 |
| C[C@@H]1CN(c2cc(-c3n[nH]c4ccc(OC5(C)CC5)cc34)ncn2)C[C@H](C)O1 [MLi2] | -1.66 | 0.0743 |

— PMC12136037, “Type II kinase inhibitors that target Parkinson’s disease–associated LRRK2” (Science Advances, 2025)
